# Results reported in patent US8129355B2, “Ketone ligands for modulating the expression of exogenous genes via an ecdysone receptor complex” (priority 2002, dated 2012).
# Like-named read-outs stand apart in the source and are kept apart here.
# Biological target: T1, Bombyx mori EcR (VP16 fusion, switch construct CVBE) with 6XEcRE LacZ reporter (Bombyx mori, UniProt P49881)
# T1 construct: expressed in transfected cells; host or cells: Human 293 kidney (HEK-293) cells, retrovirally infected, clone Z3
# T1 sequence (P49881 86-606 limits assumed): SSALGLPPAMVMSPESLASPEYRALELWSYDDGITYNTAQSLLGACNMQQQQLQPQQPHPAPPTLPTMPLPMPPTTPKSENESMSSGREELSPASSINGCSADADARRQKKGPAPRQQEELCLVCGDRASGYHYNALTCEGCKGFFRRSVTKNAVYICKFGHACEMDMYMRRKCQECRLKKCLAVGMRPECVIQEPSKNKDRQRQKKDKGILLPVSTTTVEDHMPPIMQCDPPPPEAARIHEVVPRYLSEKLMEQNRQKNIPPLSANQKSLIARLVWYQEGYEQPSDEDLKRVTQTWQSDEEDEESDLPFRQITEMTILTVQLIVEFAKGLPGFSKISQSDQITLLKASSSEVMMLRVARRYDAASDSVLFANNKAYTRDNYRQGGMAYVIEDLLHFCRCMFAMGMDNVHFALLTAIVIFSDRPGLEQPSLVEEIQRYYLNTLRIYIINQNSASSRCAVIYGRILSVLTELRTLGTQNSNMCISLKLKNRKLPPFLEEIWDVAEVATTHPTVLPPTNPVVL
# T1 sequence (P19793 1-462 partner): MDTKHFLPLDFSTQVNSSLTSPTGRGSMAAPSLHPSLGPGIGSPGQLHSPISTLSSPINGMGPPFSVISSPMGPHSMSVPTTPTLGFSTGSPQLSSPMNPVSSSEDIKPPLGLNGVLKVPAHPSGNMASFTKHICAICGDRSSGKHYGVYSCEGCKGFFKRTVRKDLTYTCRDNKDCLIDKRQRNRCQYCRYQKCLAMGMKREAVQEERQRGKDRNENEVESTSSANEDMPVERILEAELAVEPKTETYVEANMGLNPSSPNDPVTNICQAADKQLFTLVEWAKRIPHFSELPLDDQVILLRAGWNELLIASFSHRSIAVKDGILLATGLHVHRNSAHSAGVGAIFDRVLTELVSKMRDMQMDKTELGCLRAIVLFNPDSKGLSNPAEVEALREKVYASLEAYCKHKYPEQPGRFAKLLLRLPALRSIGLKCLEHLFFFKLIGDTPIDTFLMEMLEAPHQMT
# Test: Z3 assay: β-galactosidase (LacZ) reporter gene fold induction in stably transformed human 293 kidney cells (clone Z3)
# Assay type: cell-based
# Outline: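 β-Galactosidase read 48 h after dosing by bioluminescent assay; ligand added at 33 μM with DMSO held at 0.03%. The cells are stable 293 clone Z3, expressing a CMV-driven VP16 fusion of Bombyx mori EcR residues 26-546 plus six EcRE copies upstream of lacZ.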
# [1] = maximum fold induction at any concentration relative to that of GS-E ligand
# [2] = read-out: Fold Induction Average, Z3 Assay (33 μM)
# [3] = read-out: Z3 LC50; average; dose response, three-parameter logistic model
# [4] = average; dose response, three-parameter logistic model; read-out: Z3 LC50
# [5] = single dose 33 μM; ligand treated / DMSO treated cells
SMILES,Z3 Rel Max FI [1],fold induction at 33 µM [2],CC50 [3] [µM],CC50 [4] [µM],"Fold Induction Average, Z3 Assay (33 μM) [5]","fold induction at 33 µM (single dose 33 μM; ligand treated / DMSO treated cells; read-out: Fold Induction Average, Z3 Assay (33 μM))"
COc1cccc(C(=O)NC2(C(=O)c3cc(F)c(F)c(OC)c3)CCCC2)c1C [Example 67],0.54,666,4.17,–,–,–
COc1cccc(C(=O)NC2(C(=O)c3cc(F)c(F)c(OC)c3)CCCCC2)c1C [Example 68],0.70,1010,2.83,–,–,–
COc1cccc(C(=O)NC2(C(=O)c3ccccc3)CCCCC2)c1C [Example 69],0.56,1030,7.52,–,–,–
COc1ccccc1C(=O)C1(NC(=O)c2cccc(OC)c2C)CCCCCC1 [Example 70],0.78,–,–,1.94,831,–
COc1cccc(C(=O)NC2(C(=O)c3cc(C)cc(C)c3)CCCCCC2)c1C [Example 71],0.69,–,–,1.61,952,–
COc1ccccc1C(=O)C(C)(NC(=O)c1cccc(OC)c1C)c1ccc(F)cc1 (stereo not shown) [Example 72],–,–,–,–,1,–
COc1ccccc1C(=O)C(C)(C)NC(=O)c1cccc(OC)c1C [Example 74],–,–,–,–,18,–
COc1cccc(C(=O)NC(C)(C)C(=O)c2cc(C)cc(C)c2)c1C [Example 75],0.17,–,–,~10,312,–
COc1cccc(C(=O)NC(C)(C)C(=O)c2ccccc2)c1C [Example 76],0.00,–,–,> 33,1,–
CCC(CC)(NC(=O)c1cccc(OC)c1C)C(=O)c1ccc(C)cc1 [Example 77],0.04,–,–,32.2,–,–
CCC(CC)(NC(=O)c1cccc(OC)c1C)C(=O)c1ccccc1 [Example 78],0.06,–,–,> 33,–,–
COc1cccc(C(=O)NC2(C(=O)c3ccc(C)cc3)CCCC2)c1C [Example 79],0.12,–,–,34.4,–,–
COc1cccc(C(=O)C(C)(C)NC(=O)c2ccccc2OC)c1 [Example 117],–,–,–,–,1,–
CCCCC(=O)C1(NC(=O)c2cccc(OC)c2C)CCCCC1 [Example 120],0.36,791,6.33,–,–,–
O=C(NC1(C(=O)c2ccccc2)CCCC1)c1ccccc1 [Example 139],0.00,–,–,> 33,–,–
COc1cccc(C(=O)NC2(C(=O)c3ccccc3)CCCC2)c1 [Example 141],0.00,–,–,> 33,–,–
CCc1c(OC)cccc1C(=O)NC1(C(=O)c2cc(C)cc(C)c2)CCCCC1 [Example 143],0.85,–,–,1.81,–,–
CCc1c(OC)cccc1C(=O)NC1(C(=O)c2cc(C)cc(C)c2)CCCC1 [Example 144],0.86,–,–,2.15,–,–
COc1cccc(C(=O)NC2(C(=O)c3cc(C)cc(C)c3)CCN(C(C)=O)CC2)c1C [Example 149],–,–,–,–,–,2
CCNC(=O)N1CCC(NC(=O)c2cccc(OC)c2C)(C(=O)c2cc(C)cc(C)c2)CC1 [Example 157],–,–,–,–,2,–
